Values of other authors, collected in patent publication US20160076057A1, “INHIBITION OF METHANE AND HYDROGEN SULFIDE PRODUCTION IN ANAEROBIC DIGESTER ANIMAL FARMS, LANDFILLS, SEDIMENTS AND SEWER SYSTEMS” (Innovative Environmental Technologies, Inc., priority 2014, published 2016).

Tests used:
Methanobrevibacter = conditions: Miller and Wolin (2001)
[1] = test system: pure methanogenic bacteria; conditions: Wolin and Miller (2005)
[2] = test system: F420-dependent NADP oxidoreductase enzyme; conditions: Sharma et al. (2011); for affinity for the model protein compared to natural ligand F420: 3D model structure, F420 binding cavity
cellulolytic bacteria = conditions: Wolin and Miller (2005)
non-methanogens = conditions: Miller and Wolin (2001)

## CC[C@H](C)C(=O)O[C@H]1C[C@@H](C)C=C2C=C[C@H](C)[C@H](CC[C@@H]3C[C@@H](O)CC(=O)O3)[C@H]21 [lovastatin, Lovastatin]
Methanobrevibacter
  methane formation: significantly inhibited
Methanobrevibacter; per ml of culture medium
  concentration that completely inhibited growth: 10 nmol/mL
Methanobrevibacter; per ml of culture medium, read-out: concentration giving 50% inhibition of growth
  IC50: 4 µM
[1]
  growth and activity of pure methanogenic bacteria: significantly reduced
[2]
  affinity for the model protein compared to natural ligand F420: more affinity
  blocking the activity site for methane production: very effective
Cellulolytic bacteria
  effect on cellulolytic bacteria: without any negative effect
non-methanogens
  populations of the non-methanogens: not affected

## CC[C@H](C)C(=O)O[C@H]1CCC=C2C=C[C@H](C)[C@H](CC[C@@H]3C[C@@H](O)CC(=O)O3)[C@H]21 [compactin, compactin (mevastatin)]
[2]
  affinity for the model protein compared to natural ligand F420: more affinity
  blocking the activity site for methane production: very effective
